Test results: patent publication US20230278972A1, “SUBSTITUTED HALOALKYL SULFONANILIDE HERBICIDES” (FMC Corporation, priority 2020, published 2023)

Experiments:
Format in all cases: in vivo
[1] = test system: ragweed (common ragweed, Ambrosia artemisiifolia); test: Test A postemergence, ragweed; conditions: Postemergence, 0 to 100 scale (0 no effect, 100 complete control); for Plant response rating, Ragweed: 125 g ai/ha; for Ragweed plant response rating: 500 g ai/ha, visual injury vs untreated controls after approx. 10 days
Summary of the method: (§1)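 Seeds are sown in loam mixed with sand and sprayed on the soil surface right after planting for the preemergence test. Postemergence pots are sprayed once seedlings reach 2 to 10 cm at the one- to two-leaf stage. The same surfactant-containing, non-phytotoxic solvent formulation serves both.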

[2] = test system: Ryegrass, Italian (Italian ryegrass, Lolium multiflorum); test: Test A preemergence, Ryegrass, Italian; conditions: Preemergence; for Plant response rating, Ryegrass, Italian: 0 to 100 scale (0 no effect, 100 complete control); for Ryegrass, Italian plant response rating: visual injury on 0 to 100 scale (0 no effect, 100 complete control), approximately 10 days
Summary of the method: as §1

[3] = test system: galium (catchweed bedstraw, Galium aparine); test: Test A postemergence, galium; conditions: Postemergence, 0 to 100 scale (0 no effect, 100 complete control); for Plant response rating, Galium: 125 g ai/ha; for Galium plant response rating: 500 g ai/ha, visual injury vs untreated controls after approx. 10 days
Summary of the method: (§2)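 Barnyardgrass, wheat and galium were treated postemergence at the one- to two-leaf stage (2 to 10 cm) with chemicals formulated in non-phytotoxic solvent plus surfactant, grown in loam soil–sand pots. Pigweed was sown in the same blend and given a preemergence directed soil spray.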

corn (Zea mays) = test: Test A postemergence, corn; conditions: Postemergence, 0 to 100 scale (0 no effect, 100 complete control); for Plant response rating, Corn: 125 g ai/ha; for Corn plant response rating: 500 g ai/ha, visual injury vs untreated controls after approx. 10 days
Summary of the method: as §1

[4] = test system: Foxtail, Giant (giant foxtail, Setaria faberi); test: Test A postemergence, Foxtail, Giant; conditions: Postemergence, 0 to 100 scale (0 no effect, 100 complete control); for Plant response rating, Foxtail, Giant: 125 g ai/ha; for Foxtail, Giant plant response rating: 500 g ai/ha, visual injury vs untreated controls after approx. 10 days
Summary of the method: as §1

[5] = test system: Ryegrass, Italian (Italian ryegrass, Lolium multiflorum); test: Test A postemergence, Ryegrass, Italian; conditions: Postemergence, 0 to 100 scale (0 no effect, 100 complete control); for Plant response rating, Ryegrass, Italian: 125 g ai/ha; for Ryegrass, Italian plant response rating: 500 g ai/ha, visual injury vs untreated controls after approx. 10 days
Summary of the method: as §1

[6] = test system: ragweed (common ragweed, Ambrosia artemisiifolia); test: Test A preemergence, ragweed; conditions: Preemergence; for Plant response rating, Ragweed: 0 to 100 scale (0 no effect, 100 complete control); for Ragweed plant response rating: visual injury on 0 to 100 scale (0 no effect, 100 complete control), approximately 10 days
Summary of the method: as §1

[7] = test system: pigweed (Amaranthus retroflexus); test: Test A postemergence, pigweed; conditions: Postemergence, 0 to 100 scale (0 no effect, 100 complete control); for Plant response rating, Pigweed: 125 g ai/ha; for Pigweed plant response rating: 500 g ai/ha, visual injury vs untreated controls after approx. 10 days
Summary of the method: as §1

[8] = test system: pigweed (Amaranthus retroflexus); test: Test A preemergence, pigweed; conditions: for Plant response rating, Pigweed: 0 to 100 scale (0 no effect, 100 complete control); for Pigweed plant response rating: visual injury on 0 to 100 scale (0 no effect, 100 complete control), approximately 10 days
Excerpt: Seeds of plant species selected from barnyardgrass (Echinochloa crus-galli), kochia (Bassia scoparia), ragweed (common ragweed, Ambrosia artemisiifolia), Ryegrass, Italian (Italian ryegrass, Lolium multiflorum), Foxtail, Giant (giant foxtail, Setaria faberi), and pigweed (Amaranthus retroflexus) were planted into a blend of loam soil and sand and treated preemergence with a directed soil spray using test chemicals formulated in a non-phytotoxic solvent mixture which included a surfactant. At the same time, plants selected from these weed species and also wheat (Triticum aestivum), corn (Zea mays), blackgrass (Alopecurus myosuroides), and galium (catchweed bedstraw, Galium aparine) were planted in pots containing the same blend of loam soil and sand and treated with postemergence applications of test chemicals formulated in the same manner. Plants ranged in height from 2 to 10 cm and were in the one- to two-leaf stage for the postemergence treatment. […] A dash (-) response means no test result.

[9] = test system: blackgrass (Alopecurus myosuroides); test: Test A postemergence, blackgrass; conditions: Postemergence, 0 to 100 scale (0 no effect, 100 complete control); for Plant response rating, Blackgrass: 125 g ai/ha; for Blackgrass plant response rating: 500 g ai/ha, visual injury vs untreated controls after approx. 10 days
Summary of the method: as §1

kochia (Bassia scoparia) [10] = test: Test A postemergence, kochia; conditions: Postemergence, 0 to 100 scale (0 no effect, 100 complete control); for Plant response rating, Kochia: 125 g ai/ha; for Kochia plant response rating: 500 g ai/ha, visual injury vs untreated controls after approx. 10 days
Summary of the method: as §1

[11] = test system: Foxtail, Giant (giant foxtail, Setaria faberi); test: Test A preemergence, Foxtail, Giant; conditions: Preemergence; for Plant response rating, Foxtail, Giant: 0 to 100 scale (0 no effect, 100 complete control); for Foxtail, Giant plant response rating: visual injury on 0 to 100 scale (0 no effect, 100 complete control), approximately 10 days
Summary of the method: as §1

[12] = test system: barnyardgrass (Echinochloa crus-galli); test: Test A preemergence, barnyardgrass; conditions: Preemergence, 0 to 100 scale (0 no effect, 100 complete control)
Summary of the method: as §1

kochia (Bassia scoparia) [13] = test: Test A preemergence, kochia; conditions: Preemergence; for Plant response rating, Kochia: 0 to 100 scale (0 no effect, 100 complete control); for Kochia plant response rating: visual injury on 0 to 100 scale (0 no effect, 100 complete control), approximately 10 days
Summary of the method: as §1

[14] = test system: wheat (Triticum aestivum); test: Test A postemergence, wheat; conditions: Postemergence, 0 to 100 scale (0 no effect, 100 complete control); for Plant response rating, Wheat: 125 g ai/ha; for Wheat plant response rating: 500 g ai/ha, visual injury vs untreated controls after approx. 10 days
Summary of the method: as §2

[15] = 125 g ai/ha, visual injury, approx. 10 days

| SMILES | Plant response rating, Ragweed [1] | Ragweed plant response rating [1] | Plant response rating, Ryegrass, Italian [2, 15] | Plant response rating, Galium [3] | Galium plant response rating [3] | Plant response rating, Corn (corn (Zea mays)) | Corn plant response rating (corn (Zea mays)) | Plant response rating, Foxtail, Giant [4] | Foxtail, Giant plant response rating [4] | Plant response rating, Ryegrass, Italian [5] | Ryegrass, Italian plant response rating [5] | Plant response rating, Ragweed [6, 15] | Plant response rating, Pigweed [7] | Pigweed plant response rating [7] | Plant response rating, Pigweed [8, 15] | Plant response rating, Blackgrass [9] | Blackgrass plant response rating [9] | Plant response rating, Kochia (kochia (Bassia scoparia) [10]) | Kochia plant response rating (kochia (Bassia scoparia) [10]) | Plant response rating, Foxtail, Giant [11, 15] | further results |
| --- | --- | --- | --- | --- | --- | --- | --- | --- | --- | --- | --- | --- | --- | --- | --- | --- | --- | --- | --- | --- | --- |
| Cc1cc(Cl)c(N(S(=O)(=O)C(F)(F)F)S(=O)(=O)C(F)(F)F)cc1C(=O)N1CCC(Cl)CC1 [Compound 200] | 0 | 30 | 30 | 60 | 90 | 0 | 20 | 0 | 20 | 20 | 20 | 40 | 60 | 90 | 100 | 0 | 0 | 10 | 40 | 90 | Plant response rating, Ryegrass, Italian ([2]; 500 g ai/ha): 90; Plant response rating, Ragweed ([6]; 500 g ai/ha): 90; Plant response rating, Pigweed ([8]; 500 g ai/ha): 100; Plant response rating, Foxtail, Giant ([11]; 500 g ai/ha): 100; Plant response rating, Barnyardgrass [12, 15]: 30; Plant response rating, Barnyardgrass ([12]; 500 g ai/ha): 100; Plant response rating, Kochia (kochia (Bassia scoparia) [13]; [15]): 60; Plant response rating, Kochia (kochia (Bassia scoparia) [13]; 500 g ai/ha): 90; Plant response rating, Wheat [14]: 20; Wheat plant response rating [14]: 70 |
| Cc1cc(Cl)c(NS(=O)(=O)C(F)(F)F)cc1C(=O)N1CCC(F)CC1 [Compound 201] | 80 | 90 | 60 | 90 | 90 | 20 | 50 | 50 | 90 | 30 | 70 | 70 | 60 | 100 | 100 | 20 | 30 | 60 | 90 | 50 | Plant response rating, Ryegrass, Italian ([2]; 500 g ai/ha): 90; Plant response rating, Ragweed ([6]; 500 g ai/ha): 100; Plant response rating, Pigweed ([8]; 500 g ai/ha): 100; Plant response rating, Foxtail, Giant ([11]; 500 g ai/ha): 100; Plant response rating, Barnyardgrass [12, 15]: 50; Plant response rating, Barnyardgrass ([12]; 500 g ai/ha): 100; Plant response rating, Kochia (kochia (Bassia scoparia) [13]; [15]): 90; Plant response rating, Kochia (kochia (Bassia scoparia) [13]; 500 g ai/ha): 100; Plant response rating, Wheat [14]: 60; Wheat plant response rating [14]: 70 |
| Cc1cc(C)c(C(=O)N2CCC(F)(F)C2)cc1NS(=O)(=O)C(F)(F)F [Compound 202] | 80 | 90 | 40 | 50 | 80 | 0 | 20 | 0 | 70 | 20 | 70 | 70 | 70 | 100 | 100 | 0 | 0 | 20 | 50 | 60 | Plant response rating, Ryegrass, Italian ([2]; 500 g ai/ha): 70; Plant response rating, Ragweed ([6]; 500 g ai/ha): 90; Plant response rating, Pigweed ([8]; 500 g ai/ha): 100; Plant response rating, Foxtail, Giant ([11]; 500 g ai/ha): 70; Plant response rating, Barnyardgrass [12, 15]: 30; Plant response rating, Barnyardgrass ([12]; 500 g ai/ha): 90; Plant response rating, Kochia (kochia (Bassia scoparia) [13]; [15]): 40; Plant response rating, Kochia (kochia (Bassia scoparia) [13]; 500 g ai/ha): 80; Plant response rating, Wheat [14]: 30; Wheat plant response rating [14]: 60 |
| Cc1cc(Cl)c(NS(=O)(=O)C(F)(F)F)cc1C(=O)N1CCC(Cl)CC1 [Compound 224] | 50 | 90 | 50 | 90 | 90 | 10 | 60 | 30 | 70 | 30 | 60 | 50 | 60 | 100 | 100 | 0 | 40 | 50 | 70 | 90 | Plant response rating, Ryegrass, Italian ([2]; 500 g ai/ha): 100; Plant response rating, Ragweed ([6]; 500 g ai/ha): 80; Plant response rating, Pigweed ([8]; 500 g ai/ha): 100; Plant response rating, Foxtail, Giant ([11]; 500 g ai/ha): 100; Plant response rating, Barnyardgrass [12, 15]: 70; Plant response rating, Barnyardgrass ([12]; 500 g ai/ha): 100; Plant response rating, Kochia (kochia (Bassia scoparia) [13]; [15]): 0; Plant response rating, Kochia (kochia (Bassia scoparia) [13]; 500 g ai/ha): 90; Plant response rating, Wheat [14]: 30; Wheat plant response rating [14]: 70 |
| Cc1cc(C)c(C2=NOC(C)(CCl)C2)cc1NS(=O)(=O)C(F)(F)F (stereo not drawn) [Compound 226] | 30 | 90 | 90 | 60 | 80 | 0 | 70 | 20 | 60 | 30 | 60 | 30 | 30 | 80 | 80 | 20 | 50 | 10 | 70 | 90 | Ryegrass, Italian plant response rating ([2]; 500 g ai/ha): 100; Ragweed plant response rating ([6]; 500 g ai/ha): 90; Pigweed plant response rating ([8]; 500 g ai/ha): 100; Foxtail, Giant plant response rating ([11]; 500 g ai/ha): 100; Plant response rating, Barnyardgrass [12, 15]: 90; Plant response rating, Barnyardgrass ([12]; 500 g ai/ha): 100; Plant response rating, Kochia (kochia (Bassia scoparia) [13]; [15]): 40; Kochia plant response rating (kochia (Bassia scoparia) [13]; 500 g ai/ha): 90; Plant response rating, Wheat [14]: 0; Wheat plant response rating [14]: 60 |
| Cc1cc(C)c(N(S(=O)(=O)C(F)(F)F)S(=O)(=O)C(F)(F)F)cc1C1=NOC(C)(CCl)C1 (stereo not drawn) [Compound 227] | 0 | 10 | 40 | 40 | 90 | 10 | 0 | 0 | 20 | 0 | 0 | 30 | 20 | 50 | 50 | 0 | 20 | 10 | 60 | 90 | Ryegrass, Italian plant response rating ([2]; 500 g ai/ha): 100; Ragweed plant response rating ([6]; 500 g ai/ha): 80; Pigweed plant response rating ([8]; 500 g ai/ha): 80; Foxtail, Giant plant response rating ([11]; 500 g ai/ha): 100; Plant response rating, Barnyardgrass [12, 15]: 60; Plant response rating, Barnyardgrass ([12]; 500 g ai/ha): 90; Plant response rating, Kochia (kochia (Bassia scoparia) [13]; [15]): 60; Kochia plant response rating (kochia (Bassia scoparia) [13]; 500 g ai/ha): 90; Plant response rating, Wheat [14]: 70; Wheat plant response rating [14]: 40 |
| Cc1cc(C)c(C2=NOC3(CCC3)C2)cc1NS(=O)(=O)C(F)(F)F [Compound 228] | 20 | 30 | 100 | 80 | 90 | 10 | 70 | 0 | 40 | 0 | 60 | 10 | 30 | 70 | 100 | 0 | 0 | 20 | 80 | 90 | Ryegrass, Italian plant response rating ([2]; 500 g ai/ha): 100; Ragweed plant response rating ([6]; 500 g ai/ha): 70; Pigweed plant response rating ([8]; 500 g ai/ha): 100; Foxtail, Giant plant response rating ([11]; 500 g ai/ha): 100; Plant response rating, Barnyardgrass [12, 15]: 100; Plant response rating, Barnyardgrass ([12]; 500 g ai/ha): 100; Plant response rating, Kochia (kochia (Bassia scoparia) [13]; [15]): 60; Kochia plant response rating (kochia (Bassia scoparia) [13]; 500 g ai/ha): 90; Plant response rating, Wheat [14]: 0; Wheat plant response rating [14]: 70 |
